The text below walks through data of ChEMBL document CHEMBL4706673, “The study on structure-activity relationship between chromone derivatives and inhibition of superoxide anion generating from human neutrophils” (Bioorg Med Chem Lett, 2021).

Activity calls are given as the source filed them. No cut-off for these calls is given here.

Experiment [1] can be described thus: Inhibition of fMLF/CB-induced superoxide anion generation in human neutrophil. In kind it is functional, tissue-based.
The subject of experiment [2] is Neutrophil. The experiment in a line: Inhibition of elastase release in fMLF/CB-stimulated human neutrophil at 10 µM.
Experiment [3] in a line: Inhibition of fMLF/CB-induced superoxide anion generation in human neutrophil at 10 uM relative to control. In kind it is functional.

With `COc1cccc2oc(Sc3cccc(F)c3)cc(=O)c12`, the IC50 in experiment [1] was > 10 µM. In experiment [2], the inhibition result is “inactive”. Moreover, the inhibition at 10 µM in experiment [3] worked out at 10.6%.

As for `COc1ccc2c(=O)cc(Oc3ccc(O)c(OC)c3)oc2c1`, in experiment [1], the half-maximal inhibitory concentration (IC50) came to 5.2 µM. For the same compound, the inhibition result in experiment [2] was “inactive”. In addition, the inhibition at 10 µM in experiment [3] stood at 71.3%.

For `COc1cc(OC)c2c(=O)cc(Sc3cccc(F)c3)oc2c1`, in experiment [1], it took 7 µM to reach half-maximal inhibition (IC50). In addition, in experiment [2], the inhibition result was “inactive”. For the same compound, the inhibition at 10 µM in experiment [3] was determined as 61%.

Turning to `COc1cccc(Oc2cc(=O)c3ccc(OC)cc3o2)c1`, in experiment [1], the IC50 is > 10 µM. In addition, in experiment [2], the inhibition entry is “inactive”. In addition, in experiment [3], the inhibition at 10 µM worked out at 46.8%.

As for `COc1cc2oc(Sc3cccc(F)c3)cc(=O)c2c(OC)c1OC`, the half-maximal inhibitory concentration (IC50) in experiment [1] was > 10 µM. For the same compound, in experiment [2], the inhibition entry was “inactive”. Also, in experiment [3], the inhibition at 10 µM is 47.5%.

For the compound `COc1cccc(Oc2cc(=O)c3c(OC)cc(OC)cc3o2)c1`, the IC50 in experiment [1] was > 10 µM. In experiment [2], the inhibition result was “inactive”. In addition, the inhibition at 10 µM in experiment [3] is 22.4%.

Regarding `COc1ccc2c(=O)cc(Sc3cccc(F)c3)oc2c1`, half-maximal inhibition in experiment [1] (IC50) required 5 µM. In experiment [2], the inhibition result is “inactive”. In experiment [3], the inhibition at 10 µM was 70.9%.

For the compound `COc1ccc(Oc2cc(=O)c3c(OC)cccc3o2)cc1OC`, the half-maximal inhibitory concentration (IC50) in experiment [1] is > 10 µM. Moreover, the inhibition result in experiment [2] is “inactive”. Also, the inhibition at 10 µM in experiment [3] came out at 12.8%.

Turning to `COc1cc(OC)cc(Oc2cc(=O)c3c(OC)cc(OC)cc3o2)c1`, the IC50 in experiment [1] was > 10 µM. For the same compound, the inhibition entry in experiment [2] was “inactive”. In addition, in experiment [3], the inhibition at 10 µM was 27.5%.

Turning to `COc1ccc2oc(Sc3cccc(F)c3)cc(=O)c2c1`, the half-inhibitory concentration (IC50) in experiment [1] was > 10 µM. Besides, in experiment [2], the inhibition result is “inactive”. The inhibition at 10 µM in experiment [3] was determined as 17.3%.

With `COc1cc(OC)cc(Oc2cc(=O)c3c(OC)cccc3o2)c1`, the 50% inhibitory concentration (IC50) in experiment [1] is > 10 µM. The inhibition result in experiment [2] is “inactive”. Also, in experiment [3], the inhibition at 10 µM is -0.4%.

With `COc1cc(OC)c2c(=O)cc(Oc3ccccc3OC)oc2c1`, the IC50 in experiment [1] is > 10 µM. Also, the inhibition entry in experiment [2] is “inactive”. Also, in experiment [3], the inhibition at 10 µM is 2.5%.

Take `COc1ccc2c(=O)cc(Oc3cccc(O)c3)oc2c1`: the IC50 in experiment [1] was > 10 µM. Moreover, in experiment [2], the inhibition result was “inactive”. For the same compound, the inhibition at 10 µM in experiment [3] was 6.9%.

`COc1cc(OC)c2c(=O)cc(Oc3ccc(OC)c(OC)c3)oc2c1`: the IC50 in experiment [1] is > 10 µM. In addition, the inhibition entry in experiment [2] is “inactive”. Also, the inhibition at 10 µM in experiment [3] was found to be 7.8%.

As for `O=c1cc(N2CCOCC2)oc2c(-c3ccccc3)cccc12` [LY-294002], the half-maximal inhibitory concentration (IC50) in experiment [1] stood at 1.3 µM. In addition, the inhibition at 10 µM in experiment [3] came to 93.4%.

As for `COc1ccc2c(=O)cc(Oc3ccccc3OC)oc2c1`, the IC50 in experiment [1] was > 10 µM. In addition, in experiment [2], the inhibition entry was “inactive”. Further, the inhibition at 10 µM in experiment [3] turned out to be 3.8%.
